Measured values reported in patent US20230310435A1, “HOST DEFENSE PROTEIN (HDP) MIMETICS FOR PROPHYLAXIS AND/OR TREATMENT OF INFLAMMATORY DISEASES OF THE GASTROINTESTINAL TRACT” (priority 2015, published 2023).
Where a name gives a salt, the structure may show the parent alone.

What was measured:
[1] = tested on: LPS-induced TNF-α release, NR8383 cells; experiment: LPS-induced TNF-α production in NR8383 rat macrophages (ELISA); assay type: cell-based
Experimental: Method for FIG. 5. TNF-alpha assays were performed using PMX-30063. […] TNF-α concentrations in the supernatants were determined by ELISA using an immunoassay kit specific for rat TNF-α (R&D Systems, Minneapolis, MN) according to manufacturer's instructions.
Method for FIG. 6. TNF-alpha assays were performed using PMX-60056. NR8383 rat macrophage cells were pretreated with PMX-60056 for 45 minutes followed by treatment with 1 μg/ml LPS from E. coli (Sigma, St. Louis, MO) for 8 hours. TNF-α concentrations in the supernatants were determined by ELISA using an immunoassay kit specific for rat TNF-α (R&D Systems, Minneapolis, MN) according to manufacturer's instructions.
The TNF-α inhibition assay was performed according to the Method described for FIG. 5. […] TNF-α concentrations in the supernatants were determined by ELISA using an immunoassay kit specific for rat TNF-α (R&D Systems).
The TNF-α inhibition assay was performed according to the Method described for FIG. 6. NR8383 rat macrophage cells (CRL-2192. ATCC) were pretreated with PMX-60056 for 45 minutes followed by treatment with 1 μg/ml LPS for 8 hours. TNF-α concentrations in the supernatants were determined by ELISA using an immunoassay kit specific for rat TNF-α (R&D Systems).
(§1) PDE4 and PDE3 inhibition results in subsequent down-regulation of pro-inflammatory cytokines/chemokines and its regulators, and experiments were conducted to confirm such down-regulation by brilacidin in ex vivo cell-based assays. In these assays, cells were exposed to brilacidin 45 minutes before an 8-hour lipopolysaccharide (LPS) stimulation in the presence of brilacidin; cytokine/enzyme concentrations were determined by ELISA using a standard immunoassay kit.

[2] = tested on: LPS-induced MCP-1 release, NR8383 cells; experiment: LPS-induced MCP-1 release in NR8383 rat macrophages (ELISA); assay type: cell-based
Experimental: Method for FIG. 7. […] After 8 hours, supernatants were collected for MCP-1 measurement by ELISA. MCP-1 was measured using an immunoassay kit according to manufacturer's instructions (Thermo Scientific, Rockford. IL).
Method for FIG. 8. MCP-1 assays were performed using PMX-60056. Rat macrophages (NR8383) were pretreated with […] with concentrations shown for 45 minutes, followed by 1 μg/ml LPS treatment from E. coli (Sigma, St. Louis, MO) for 8 hours. After 8 hours, supernatants were collected for MCP-1 measurement by ELISA. MCP-1 was measured using an immunoassay kit according to manufacturer's instructions (Thermo Scientific, Rockford, IL).
The MCP-1 inhibition assay was performed according to the Method described for FIG. 7.
The MCP-1 inhibition assay was performed according to the Method described for FIG. 8.
as §1

[3] = tested on: LPS-induced MMP-9 release, NR8383 cells; experiment: LPS-induced MMP-9 release in NR8383 rat macrophages (ELISA); assay type: cell-based
Experimental: Method for FIG. 9. […] After 8 hours, supernatants were collected for MMP9 measurement by ELISA using immunoassay kit (R&D Systems, Minneapolis, MN) according to manufacturer's instructions.
The MMP-9 inhibition assay was performed according to the Method described for FIG. 9.
as §1

[4] = tested on: LPS-induced IL-6 release, NR8383 cells; experiment: LPS-induced IL-6 release in NR8383 rat macrophages (ELISA); assay type: cell-based; details: Macrophage
Experimental: Method for FIG. 10. […] After 8 hours, supernatants were collected for IL-6 measurement by ELISA using immunoassay kit (R&D Systems, Minneapolis, MN) according to manufacturer's instructions.
The inhibition of IL-6 induction assay was performed according to the Method described for FIG. 10.
as §1

[5] = tested on: LPS-induced IL-1β release, NR8383 cells; experiment: LPS-induced IL-1β release in NR8383 rat alveolar macrophages (ELISA); assay type: cell-based; details: Macrophage, 8-hour brilacidin and LPS exposure, read-out: IC50, inhibition of LPS-induced IL-1β release
Experimental: To examine the effect of brilacidin on the pro-inflammatory cytokine IL-1β production in cells, rat alveolar macrophage (NR8383) cells were pretreated with a range of brilacidin concentrations for 45 minutes, followed by treatment with 1 μg/ml LPS from E. coli (Sigma, St. Louis, MO) for 8 hours in the presence of brilacidin. After 8 hours, supernatants were collected for IL-1β measurement by ELISA. IL-1β was measured using an immunoassay kit according to manufacturer's instructions (Thermo Scientific, Rockford, IL).
as §1

[6] = tested on: Ulcerative Proctosigmoiditis/Ulcerative Proctitis (UP/UPS); experiment: Phase 2 clinical trial CTIX-BRI-206 in Ulcerative Proctitis/Ulcerative Proctosigmoiditis; assay type: in vivo, human
Experimental: In a Phase 2 study (CTIX-BRI-206), clinical remission (with Endoscopic response) was achieved after 6 weeks of treatment in >50% subjects in each treatment cohort (50 mg, 100 mg, and 200 mg brilacidin, as daily retention enema) (FIG. 21, Panel A). Inflammatory biomarkers IL-1β and IL-6 were reduced in colonic tissue biopsies collected at Week 6 (Day 42) compared to those biopsies collected at baseline (FIG. 21, Panel B).

With `N=C(N)NCCCCC(=O)Nc1cc(C(F)(F)F)cc(NC(=O)c2cc(C(=O)Nc3cc(C(F)(F)F)cc(NC(=O)CCCCNC(=N)N)c3O[C@@H]3CCNC3)ncn2)c1O[C@@H]1CCNC1` [PMX-30063, N^4,N^6-bis(2-((R)-pyrrolidin-3-yloxy)-3-((4-carbamoylbutyl)guanidine)-5-(trifluoromethyl)phenyl)pyrimidine-4,6-dicarboxamide tetrahydrochloride salt] the “effect on LPS-induced TNF-α production (in words)” value ([1]; NR8383, 45 min pretreatment, 1 μg/ml LPS 8 h) was “inhibited”, the inhibition at 0.5 µM ([1]; Rattus norvegicus, Macrophage, 8 h) was ~50% and the IC50 ([1]; Rattus norvegicus, Macrophage, NR8383 cells, ELISA, 45 min pretreatment, 8-hour LPS, read-out: IC50, inhibition of LPS-induced TNF-α release) was 442 nM. The “effect on MCP-1 induction after LPS stimulation (in words)” value ([2]; NR8383, 45 min pretreatment, LPS 1 μg/ml 8 h) was “strong inhibition”, the IC50 ([2]; Rattus norvegicus, Macrophage, NR8383 cells, ELISA, 45 min pretreatment, 8-hour LPS, read-out: IC50, inhibition of LPS-induced MCP-1 release) was 750 nM and the “decrease in MCP-1 levels” value ([2]; at 0.5 μM, NR8383, LPS 1 μg/ml 8 h) was ≥ 25%. For the same molecule, the IC50 ([3]; Rattus norvegicus, Macrophage, NR8383 cells, ELISA, 45 min pretreatment, 8-hour LPS, read-out: IC50, inhibition of LPS-induced MMP-9 release) was 2300 nM, the “decrease in MMP-9 levels” value ([3]; at 12.5 μM, NR8383, LPS 1 μg/ml 8 h) was 50% and the IC50 ([4]; NR8383 cells, ELISA, 45 min pretreatment, 8-hour LPS, read-out: IC50, inhibition of LPS-induced IL-6 release) was 274 nM. The inhibition at 0.5 µM ([4]; at 0.5 μM, NR8383, LPS 1 μg/ml 8 h, read-out: decrease in IL-6 levels / inhibition of LPS induced IL-6 production) was ~50%, the IC50 [5] was 702 nM and the “IL-1β in colonic tissue biopsies vs baseline (in words)” value ([6]; Week 6 (Day 42)) was “reduced”. For the same molecule, the “IL-6 in colonic tissue biopsies vs baseline (in words)” value ([6]; Week 6 (Day 42)) was “reduced” and the “subjects achieving clinical remission (with Endoscopic response)” value ([6]; after 6 weeks, each cohort (50 mg, 100 mg, 200 mg, daily retention enema)) was > 50%.
